# Where a name gives a salt, the structure may show the parent alone.
# Tested on: wildtype Wnt signaling cascade
# Assay: HEK293 TOP Assay (Super TopFlash luciferase reporter, Wnt-3a stimulated)
# Assay type: cell-based
# Settings: Homo sapiens, HEK293, 16 h, HEK293 TOP reporter cell line, Wnt-3a at EC50, 16 hours incubation, compound dilution series 50 μM to 15 nM
# Description: In order to discover and characterize small molecules which inhibit the wildtype Wnt pathway, a cellular reporter assay was employed. The corresponding assay cell was generated by transfection of the mammalian cell line HEK293 (ATCC, #CRL-1573) with the Super TopFlash vector (Morin, Science 275, 1997, 1787-1790; Molenaar et al., Cell 86 (3), 1996, 391-399). The HEK293 cell line is cultivated at 37° C. and 5% CO2 in DMEM (Life Technologies, #41965-039), supplemented with 2 mM glutamine, 20 mM HEPES, 1.4 mM pyruvate, 0.15% Na-bicarbonate and 10% foetal bovine serum (GIBCO, #10270). Stable transfectants were generated by selection with 300 μg/ml Hygromycin.
# In preparation of the assay, the two cell lines were plated 24 hrs before beginning the test at 10000 cells per well in a 384 micro titre plate (MTP) in 30 μl growth medium. […] The recombinant human Wnt-3a was thereby applied between 2500 and 5 ng/ml in two-fold dilution steps.
# Selective inhibitory activity for small molecules on the wildtype Wnt pathway was determined after parallel incubation of both (TOP and FOP) HEK293 reporter cell lines with a compound dilution series from 50 μM to 15 nM in steps of 3.16-fold dilutions in CAFTY buffer (130 mM sodium chloride, 5 mM potassium chloride, 20 mM HEPES, 1 mM magnesium chloride, 5 mM sodium bicarbonate, pH 7.4) containing 2 mM Ca^2+ and 0.01% BSA.
# The compounds were thereby serially prediluted in 100% DMSO and thereafter 50 fold into the CAFTY compound dilution buffer (described above).
row,IC50,Compound
1,33 µM,"CNC(=O)c1nc[nH]c1C(=O)Nc1ccc(NC(=O)c2c(OC)cccc2OC)cc1 [Example 57, N^5-{4-[(2,6-dimethoxybenzoyl)amino]phenyl}-N^4-methyl-1H-imidazole-4,5-dicarboxamide]"
2,6.58 µM,"CNC(=O)c1nc[nH]c1C(=O)Nc1ccc(NC(=O)c2c(Cl)cc(Cl)cc2Cl)cc1 [Example 59, N^4-methyl-N^5-{4-[(2,4,6-trichlorobenzoyl)amino]phenyl}-1H-imidazole-4,5-dicarboxamide]"
3,13 µM,"COC(=O)c1nc[nH]c1C(=O)Nc1ccc(NC(=O)c2ccc(F)cc2)c(F)c1 [Example 75, methyl-5-({3-fluoro-4-[(4-fluorobenzoyl)amino]phenyl}carbamoyl)-1H-imidazole-4-carboxylate]"
4,2.4 µM,"Cc1cc(NC(=O)c2[nH]cnc2C(=O)NCCN(C)C)ccc1NC(=O)c1ccccc1Cl [Example 88, N^5-{4-[(2-chlorobenzoyl)amino]-3-methylphenyl}-N^4-[2-(dimethylamino)ethyl]-1H-imidazole-4,5-dicarboxamide]"
5,44.5 µM,"CNC(=O)c1nc[nH]c1C(=O)Nc1ccc(NC(=O)c2ccc(F)cc2)c(C)c1 [Example 91, N^5-{4-[(4-fluorobenzoyl)amino]-3-methylphenyl}-N^4-methyl-1H-imidazole-4,5-dicarboxamide]"
6,2.65 µM,"Cc1cc(NC(=O)c2[nH]cnc2C(=O)NCCN2CCCCC2)ccc1NC(=O)c1ccc(F)cc1 [Example 93, N^5-{4-[(4-fluorobenzoyl)amino]-3-methylphenyl}-N^4-[2-(piperidin-1-yl)ethyl]-1H-imidazole-4,5-dicarboxamide]"
7,38 µM,"CNC(=O)c1nc[nH]c1C(=O)Nc1ccc(NC(=O)c2ccc(F)cc2)c(OC)c1 [Example 103, N^5-{4-[(4-fluorobenzoyl)amino]-3-methoxyphenyl}-N^4-methyl-1H-imidazole-4,5-dicarboxamide]"
8,7.2 µM,"COc1cc(NC(=O)c2[nH]cnc2C(=O)NCCN(C)C)ccc1NC(=O)c1ccc(F)cc1 [Example 104, N^4-[2-(dimethylamino)ethyl]-N^5-{4-[(4-fluorobenzoyl)amino]-3-methoxyphenyl}-1H-imidazole-4,5-dicarboxamide]"
9,0.77 µM,"COC(=O)c1nc[nH]c1C(=O)Nc1ccc(NC(=O)c2ccccc2Cl)nc1 [Example 111, methyl 5-({6-[(2-chlorobenzoyl)amino]pyridin-3-yl}carbamoyl)-1H-imidazole-4-carboxylate]"
10,3.55 µM,"CNC(=O)c1nc[nH]c1C(=O)Nc1ccc(NC(=O)c2ccc(F)cc2)nc1 [Example 115, N^5-{6-[(4-fluorobenzoyl)amino]pyridin-3-yl}-N^4-methyl-1H-imidazole-4,5-dicarboxamide]"
11,44 µM,"CN(C)CCNC(=O)c1nc[nH]c1C(=O)Nc1ccc(NC(=O)c2ccc(F)cc2)nc1 [Example 116, N^4-[2-(dimethylamino)ethyl]-N^5-{6-[(4-fluorobenzoyl)amino]pyridin-3-yl}-1H-imidazole-4,5-dicarboxamide]"
12,40 µM,"O=C(Nc1ccc(NC(=O)c2[nH]cnc2C(=O)NCCN2CCCCC2)cn1)c1ccc(F)cc1 [Example 117, N^5-{6-[(4-fluorobenzoyl)amino]pyridin-3-yl}-N^4-[2-(piperidin-1-yl)ethyl]-1H-imidazole-4,5-dicarboxamide]"
13,2.4 µM,"O=C(Nc1ccc(NC(=O)c2nc[nH]c2C(=O)NCCO)cc1)c1ccc(F)cc1 [Example 136, N^4-{4-[(4-fluorobenzoyl)amino]phenyl}-N^5-(2-hydroxyethyl)-1H-imidazole-4,5-dicarboxamide]"
14,5.7 µM,"COCCNC(=O)c1[nH]cnc1C(=O)Nc1ccc(NC(=O)c2ccc(F)cc2)cc1 [Example 140, N^4-{4-[(4-fluorobenzoyl)amino]phenyl}-N^5-(2-methoxyethyl)-1H-imidazole-4,5-dicarboxamide]"
15,3 µM,"O=C(Nc1ccc(NC(=O)c2nc[nH]c2C(=O)NCC(F)F)cc1)c1ccc(F)cc1 [Example 141, N^5-(2,2-difluoroethyl)-N^4-{4-[(4-fluorobenzoyl)amino]phenyl}-1H-imidazole-4,5-dicarboxamide]"
16,29.5 µM,"O=C(Nc1ccc(NC(=O)c2nc[nH]c2C(=O)N2CCC2)cc1)c1ccc(F)cc1 [Example 143, 5-(azetidin-1-ylcarbonyl)-N-{4-[(4-fluorobenzoyl)amino]phenyl}-1H-imidazole-4-carboxamide]"

row,IC50,Compound
1,50 µM,"CN(C)C(=O)c1[nH]cnc1C(=O)Nc1ccc(NC(=O)c2ccc(F)cc2)cc1 [Example 144, N^4-{4-[(4-fluorobenzoyl)amino]phenyl}-N^5,N^5-dimethyl-1H-imidazole-4,5-dicarboxamide]"
2,5.15 µM,"CC(C)CNC(=O)c1[nH]cnc1C(=O)Nc1ccc(NC(=O)c2ccc(F)cc2)cc1 [Example 146, N^4-{4-[(4-fluorobenzoyl)amino]phenyl}-N^5-isobutyl-1H-imidazole-4,5-dicarboxamide]"
3,50 µM,"O=C(Nc1ccc(NC(=O)c2nc[nH]c2C(=O)NC(CO)CO)cc1)c1ccc(F)cc1 [Example 150, N^5-(1,3-dihydroxypropan-2-yl)-N^4-{4-[(4-fluorobenzoyl)amino]phenyl}-1H-imidazole-4,5-dicarboxamide]"
4,0.95 µM,"O=C(Nc1ccc(NC(=O)c2nc[nH]c2C(=O)NCCN2CCOCC2)cc1)c1ccc(F)cc1 [Example 151, N^4-{4-[(4-fluorobenzoyl)amino]phenyl}-N^5-[2-(morpholin-4-yl)ethyl]-1H-imidazole-4,5-dicarboxamide]"
5,1.25 µM,"CC(C)(CN1CCOCC1)NC(=O)c1[nH]cnc1C(=O)Nc1ccc(NC(=O)c2ccccc2Cl)cc1 [Example 154, N^4-{4-[(2-chlorobenzoyl)amino]phenyl}-N^5-[2-methyl-1-(morpholin-4-yl)propan-2-yl]-1H-imidazole-4,5-dicarboxamide]"
6,36.5 µM,"CN1CCN(CCNC(=O)c2[nH]cnc2C(=O)Nc2ccc(NC(=O)c3ccc(F)cc3)cc2)CC1 [Example 161, N^4-{4-[(4-fluorobenzoyl)amino]phenyl}-N^5-[2-(4-methylpiperazin-1-yl)ethyl]-1H-imidazole-4,5-dicarboxamide]"
7,2.25 µM,"O=C(Nc1ccc(NC(=O)c2nc[nH]c2C(=O)NC(CO)CO)cc1)c1ccc(F)cc1Cl [Example 172, N^4-{4-[(2-chloro-4-fluorobenzoyl)amino]phenyl}-N^5-(1,3-dihydroxypropan-2-yl)-1H-imidazole-4,5-dicarboxamide]"
8,1.05 µM,"O=C(Nc1ccc(NC(=O)c2nc[nH]c2C(=O)NCCF)cc1)c1ccc(F)cc1 [Example 174, N^4-{4-[(4-fluorobenzoyl)amino]phenyl}-N^5-(2-fluoroethyl)-1H-imidazole-4,5-dicarboxamide]"
9,1.17 µM,"O=C(Nc1ccc(NC(=O)c2nc[nH]c2C(=O)NCCN2CCC(O)CC2)cc1)c1ccc(F)cc1 [Example 178, N^4-{4-[(4-fluorobenzoyl)amino]phenyl}-N^5-[2-(4-hydroxypiperidin-1-yl)ethyl]-1H-imidazole-4,5-dicarboxamide]"
10,6.7 µM,"CN1CCN(CCCNC(=O)c2[nH]cnc2C(=O)Nc2ccc(NC(=O)c3ccc(F)cc3)cc2)CC1 [Example 181, N^4-{4-[(4-fluorobenzoyl)amino]phenyl}-N^5-[3-(4-methylpiperazin-1-yl)propyl]-1H-imidazole-4,5-dicarboxamide]"
11,0.46 µM,"CN1CCN(CCCNC(=O)c2[nH]cnc2C(=O)Nc2ccc(NC(=O)c3ccccc3Cl)cc2)CC1 [Example 192, N^4-{4-[(2-chlorobenzoyl)amino]phenyl}-N^5-[3-(4-methylpiperazin-1-yl)propyl]-1H-imidazole-4,5-dicarboxamide]"
12,5.7 µM,"CN1CCN(NC(=O)c2[nH]cnc2C(=O)Nc2ccc(NC(=O)c3ccc(F)cc3)cc2)CC1 [Example 193, N^4-{4-[(4-fluorobenzoyl)amino]phenyl}-N^5-(4-methylpiperazin-1-yl)-1H-imidazole-4,5-dicarboxamide]"
13,2.65 µM,"CC(CNC(=O)c1[nH]cnc1C(=O)Nc1ccc(NC(=O)c2ccc(F)cc2)cc1)N1CCN(C)CC1 (centres unmarked) [Example 205, N^4-{4-[(4-fluorobenzoyl)amino]phenyl}-N^5-[2-(4-methylpiperazin-1-yl)propyl]-1H-imidazole-4,5-dicarboxamide]"
14,50 µM,"CNC(=O)c1nc[nH]c1C(=O)Nc1ccc(NC(=O)c2ccc(F)cc2O)cc1 [Example 245, N^5-{4-[(4-fluoro-2-hydroxybenzoyl)amino]phenyl}-N^4-methyl-1H-imidazole-4,5-dicarboxamide]"
15,1.15 µM,"NC1CCN(C(=O)c2[nH]cnc2C(=O)Nc2ccc(NC(=O)c3ccc(F)cc3Cl)cc2)C1 (centres unmarked) [Example 285, 5-[(3-aminopyrrolidin-1-yl)carbonyl]-N-{4-[(2-chloro-4-fluorobenzoyl)amino]phenyl}-1H-imidazole-4-carboxamide hydrochloride salt]"
16,2.7 µM,"O=C(Nc1ccc(NC(=O)c2nc[nH]c2C(=O)N2CCNCC2)cc1)c1ccc(F)cc1Cl [Example 289, N-{4-[(2-chloro-4-fluorobenzoyl)amino]phenyl}-5-(piperazin-1-ylcarbonyl)-1H-imidazole-4-carb oxamide hydrochloric acid salt]"

# From patent US9884063B2, “Amido-substituted azole compounds” (Bayer Pharma Aktiengesellschaft, priority 2014, dated 2018)
